# Assay results reported in ChEMBL document CHEMBL4828751, “Discovery of novel tubulin/HDAC dual-targeting inhibitors with strong antitumor and antiangiogenic potency” (Eur J Med Chem, 2021).
# Activity calls are given as the source filed them. No cut-off for these calls is given here.
# Experiments:
# [1] = test system: A549; experiment: Antiproliferative activity against human A549 cells assessed as cell growth inhibition after 72 hrs by SRB assay; assay type: functional, cell-based; details: A549, 72 h
# [2] = test system: HeLa; experiment: Antiproliferative activity against human HeLa cells assessed as cell growth inhibition after 72 hrs by SRB assay; assay type: functional, cell-based
# [3] = test system: HEK-293T; experiment: Cytotoxicity against human HEK293T cells assessed as reduction in cell viability; assay type: cell-based
# [4] = test system: THP-1; experiment: Cytotoxicity against human THP-1 cells assessed as reduction in cell viability; assay type: cell-based
# [5] = test system: L02; experiment: Cytotoxicity against human L02 cells assessed as reduction in cell viability; assay type: cell-based
# [6] = target: T1, Tubulin (Homo sapiens) (UniProt P68371+Q9H4B7+P0DPH7+P68366+Q13509+Q71U36+P04350+Q3ZCM7+P07437+P68363+Q9BQE3+Q6PEY2+Q13885+Q9BVA1+Q9BUF5); experiment: Inhibition of tubulin polymerization in human MGC-803 cells; assay type: cell-based
# [7] = target: T1, Tubulin (Homo sapiens); experiment: Inhibition of tubulin polymerization in human MGC-803 cells assessed as change in shape of nucleus at 2 to 7.5 nM measured after 48 hrs by Hoechst staining based confocal microscopy analysis; assay type: cell-based; details: dose 2-7.5 nM
# [8] = test system: MGC-803; experiment: Induction of cell cycle arrest in human MGC-803 cells assessed as accumulation at G2/M phase at 15 nM incubated for 24 hrs by propidium iodide staining based flow cytometry (reference value: 37.03 %); assay type: functional
# [9] = test system: MGC-803; experiment: Induction of cell cycle arrest in human MGC-803 cells assessed as accumulation at G2/M phase at 30 nM incubated for 24 hrs by propidium iodide staining based flow cytometry (reference value: 37.03 %); assay type: functional
# [10] = test system: MGC-803; experiment: Induction of cell cycle arrest in human MGC-803 cells assessed as accumulation at S phase at 15 nM incubated for 24 hrs by propidium iodide staining based flow cytometry (reference value: 17.3 %); assay type: functional
# [11] = test system: MGC-803; experiment: Induction of cell cycle arrest in human MGC-803 cells assessed as accumulation at G1 phase at 15 nM incubated for 24 hrs by propidium iodide staining based flow cytometry (reference value: 45.67 %); assay type: functional
# [12] = test system: MGC-803; experiment: Induction of G2/M phase cell cycle arrest in human MGC-803 cells assessed as upregulation of cyclinB1 protein expression at 7.5 to 30 nM measured after 48 hrs by western blot analysis; assay type: functional, cell-based; details: dose 7.5-30 nM
# [13] = test system: MGC-803; experiment: Down regulation of Pcdc2 expression in human MGC-803 cells at 7.5 to 30 nM measured after 24 hrs by Western blot analysis; assay type: functional, cell-based; details: dose 7.5-30 nM
# [14] = test system: MGC-803; experiment: Induction of apoptosis in human MGC-803 cells assessed as early apoptotic cells at 7.5 nM measured after 48 hrs by Annexin V-APC/PI double staining based flow cytometry assay (reference value: 1.31 %); assay type: functional, cell-based
# [15] = test system: MGC-803; experiment: Induction of apoptosis in human MGC-803 cells assessed as necrotic cells at 7.5 nM measured after 48 hrs by Annexin V-APC/PI double staining based flow cytometry assay (reference value: 0.57 %); assay type: functional, cell-based
# [16] = test system: MGC-803; experiment: Induction of apoptosis in human MGC-803 cells assessed as viable cells at 7.5 nM measured after 48 hrs by Annexin V-APC/PI double staining based flow cytometry assay (reference value: 97.1 %); assay type: functional, cell-based
# [17] = test system: MGC-803; experiment: Induction of apoptosis in human MGC-803 cells assessed as late apoptotic cells at 15 nM measured after 48 hrs by Annexin V-APC/PI double staining based flow cytometry assay (reference value: 1.05 %); assay type: functional, cell-based
# [18] = test system: MGC-803; experiment: Induction of apoptosis in human MGC-803 cells assessed as necrotic cells at 15 nM measured after 48 hrs by Annexin V-APC/PI double staining based flow cytometry assay (reference value: 0.57 %); assay type: functional, cell-based
# [19] = test system: MGC-803; experiment: Induction of apoptosis in human MGC-803 cells assessed as viable cells at 30 nM measured after 48 hrs by Annexin V-APC/PI double staining based flow cytometry assay (reference value: 92.1 %); assay type: functional, cell-based
# [20] = test system: MGC-803; experiment: Induction of apoptosis in human MGC-803 cells assessed as increase in Caspase-3 expression incubated for 24 hrs by Western blot analysis; assay type: functional, cell-based; details: dose 7.5-30 nM
# [21] = test system: MGC-803; experiment: Induction of apoptosis in human MGC-803 cells assessed as increase in Caspase-9 expression incubated for 24 hrs by Western blot analysis; assay type: functional, cell-based; details: dose 7.5-30 nM
# [22] = test system: MGC-803; experiment: Induction of mitochondrial membrane potential loss in human MGC-803 cells after 48 hrs by JC-1 staining based flow cytometric analysis; assay type: functional, cell-based; details: dose 7.5-30 nM
# [23] = test system: MGC-803; experiment: Induction of ROS generation in human MGC-803 cells assessed as increase in intracellular ROS level incubated for 24 hrs by DCFH-DA staining based flow cytometric analysis; assay type: functional, cell-based; details: dose 7.5-30 nM
# [24] = test system: HUVEC; experiment: Antivascular activity against HUVEC assessed as inhibition of tube formation at 5 to 20 nM incubated for 48 hrs by […]; assay type: functional, cell-based; details: Homo sapiens, dose 5-20 nM
# [25] = test system: HUVEC; experiment: Antiinvasive activity in HUVEC cells assessed as decrease in cell invasion at 5 to 20 nM measured after 48 hrs by transwell assay; assay type: functional, cell-based; details: Homo sapiens, dose 5-20 nM
# [26] = test system: MGC-803; experiment: Antiinvasive activity in human MGC-803 cells assessed as decrease in number of migrated MGC-803 cells at 7.5 to 30 nM measured after 48 hrs by transwell assay; assay type: functional, cell-based; details: dose 7.5-30 nM
# [27] = test system: MGC-803; experiment: Induction of mitochondrial membrane potential loss in human MGC-803 cells at 15 nM after 48 hrs by JC-1 staining based flow cytometric analysis (reference value: 86 %); assay type: functional
smiles,measurement,setting,value
COc1ccc(/C=C\c2cc(OC)c(OC)c(OC)c2)cc1/C=C/C(=O)Nc1ccccc1N,IC50,[1],191 nM
same,IC50,[2],50 nM
same,IC50,[3],352 nM
same,IC50,[4],195 nM
same,IC50,[5],556 nM
same,inhibition,[6],Active
same,inhibition,[7],Active
same,Activity,[8],Dose-Dependent Effect
same,Activity,[8]; record 2,48.16%
same,Activity,[9],Dose-Dependent Effect
same,Activity,[9]; record 2,84.19%
same,Activity,[10],12.7%
same,Activity,[11],39.14%
same,Activity,[12],Active
same,Activity,[13],Active
same,Activity,[14],Active
same,Activity,[15],Active
same,Activity,[16],Active
same,Activity,[17],Active
same,Activity,[18],Active
same,Activity,[19],Active
same,Activity,[20],Dose-Dependent Effect
same,Activity,[21],Dose-Dependent Effect
same,Activity,[22],Dose-Dependent Effect
same,Activity,[23],Dose-Dependent Effect
same,Activity,[24],Active
same,inhibition,[25],Active
same,Activity,[26],Active
same,Activity,[27],63.6%
